# Tested on: hemoglobin-haptoglobin complex
# Assay: Stability of hemoglobin (as hemoglobin-haptoglobin complex) in samples preserved at 37° C. in preservation solution containing 1 unit/L haptoglobin, Hb measured by latex agglutination method (Examples 1 to 7)
# Set-up: species or system human
# Method in brief: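 Latex agglutination (anti-human hemoglobin rabbit polyclonal latex) measured Hb in samples stored at 37 °C up to 21 days; values expressed as % recovery versus day 0. Preservation solution: HEPES 40 mmol/L pH 6.8, BSA 0.1%, NaN3 0.1%, haptoglobin 1 unit/L, phenylboronic acid 0–100 mmol/L, optional sugars; ~300 µg/L Hb, 0.5% feces or none.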
# [1] = Feces 1, phenylboronic acid 0.5 mmol/L, 37° C., 0 days
# [2] = Feces 1, phenylboronic acid 0.5 mmol/L, 37° C., 7 days
# [3] = Feces 1, phenylboronic acid 0.5 mmol/L, 37° C., 14 days
# [4] = Feces 1, phenylboronic acid 0.5 mmol/L, 37° C., 21 days
# [5] = Feces 1, phenylboronic acid 1 mmol/L, 37° C., 0 days
# [6] = Feces 1, phenylboronic acid 1 mmol/L, 37° C., 14 days
# [7] = Feces 1, phenylboronic acid 1 mmol/L, 37° C., 21 days
# [8] = Feces 1, phenylboronic acid 15 mmol/L, 37° C., 0 days
# [9] = Feces 1, phenylboronic acid 15 mmol/L, 37° C., 7 days
# [10] = Feces 1, phenylboronic acid 15 mmol/L, 37° C., 14 days
# [11] = Feces 1, phenylboronic acid 15 mmol/L, 37° C., 21 days
# [12] = Feces 1, phenylboronic acid 50 mmol/L, 37° C., 0 days
# [13] = Feces 1, phenylboronic acid 50 mmol/L, 37° C., 7 days
# [14] = Feces 1, phenylboronic acid 50 mmol/L, 37° C., 14 days
# [15] = Feces 1, phenylboronic acid 50 mmol/L, 37° C., 21 days
# [16] = Feces 1, phenylboronic acid 100 mmol/L, 37° C., 0 days
# [17] = Feces 1, phenylboronic acid 100 mmol/L, 37° C., 7 days
# [18] = Feces 1, phenylboronic acid 100 mmol/L, 37° C., 14 days
# [19] = Feces 1, phenylboronic acid 100 mmol/L, 37° C., 21 days
# [20] = Feces 2, phenylboronic acid 0.5 mmol/L, 37° C., 0 days
# [21] = Feces 2, phenylboronic acid 0.5 mmol/L, 37° C., 7 days
# [22] = Feces 2, phenylboronic acid 0.5 mmol/L, 37° C., 14 days
# [23] = Feces 2, phenylboronic acid 0.5 mmol/L, 37° C., 21 days
# [24] = Feces 2, phenylboronic acid 1 mmol/L, 37° C., 7 days
# [25] = Feces 2, phenylboronic acid 1 mmol/L, 37° C., 14 days
# [26] = Feces 2, phenylboronic acid 1 mmol/L, 37° C., 21 days
# [27] = Feces 2, phenylboronic acid 15 mmol/L, no sugar, 0 days at 37° C.
# [28] = Feces 2, phenylboronic acid 15 mmol/L, no sugar, 7 days at 37° C.
# [29] = Feces 2, phenylboronic acid 15 mmol/L, no sugar, 14 days at 37° C.
# [30] = Feces 2, phenylboronic acid 15 mmol/L, no sugar, 21 days at 37° C.
# [31] = Feces 2, phenylboronic acid 15 mmol/L, 37° C., 0 days
# [32] = Feces 2, phenylboronic acid 15 mmol/L, 37° C., 7 days
# [33] = Feces 2, phenylboronic acid 15 mmol/L, 37° C., 14 days
# [34] = Feces 2, phenylboronic acid 15 mmol/L, 37° C., 21 days
# [35] = Feces 2, phenylboronic acid 50 mmol/L, 37° C., 0 days
# [36] = Feces 2, phenylboronic acid 50 mmol/L, 37° C., 7 days
# [37] = Feces 2, phenylboronic acid 50 mmol/L, 37° C., 21 days
# [38] = Feces 2, phenylboronic acid 100 mmol/L, 37° C., 0 days
# [39] = Feces 2, phenylboronic acid 100 mmol/L, 37° C., 7 days
# [40] = Feces 2, phenylboronic acid 100 mmol/L, 37° C., 14 days
# [41] = Feces 2, phenylboronic acid 100 mmol/L, 37° C., 21 days
structure (smiles),measurement,setting,value
OB(O)c1ccccc1 [phenylboronic acid],recovery ratio of hemoglobin in the samples,"Feces 1, Feces 2, Feces 3, phenylboronic acid at 0.5 mmol/L or more",improved
same,Hb concentration,[1],279 µg/L
same,Recovery ratio with respect to Hb concentration after 0 days,[1],100%
same,Hb concentration,[2],181 µg/L
same,Recovery ratio with respect to Hb concentration after 0 days,[2],65%
same,Hb concentration,[3],147 µg/L
same,Recovery ratio with respect to Hb concentration after 0 days,[3],53%
same,Hb concentration,[4],129 µg/L
same,Recovery ratio with respect to Hb concentration after 0 days,[4],46%
same,Hb concentration,[5],275 µg/L
same,Recovery ratio with respect to Hb concentration after 0 days,[5],100%
same,Recovery ratio with respect to Hb concentration after 0 days,"Feces 1, phenylboronic acid 1 mmol/L, 37° C., 7 days",66%
same,Hb concentration,[6],148 µg/L
same,Recovery ratio with respect to Hb concentration after 0 days,[6],54%
same,Hb concentration,[7],125 µg/L
same,Recovery ratio with respect to Hb concentration after 0 days,[7],45%
same,Hb concentration,[8],302 µg/L
same,Recovery ratio with respect to Hb concentration after 0 days,[8],100%
same,Hb concentration,[9],243 µg/L
same,Recovery ratio with respect to Hb concentration after 0 days,[9],80%
same,Hb concentration,[10],239 µg/L
same,Recovery ratio with respect to Hb concentration after 0 days,[10],79%
same,Hb concentration,[11],224 µg/L
same,Recovery ratio with respect to Hb concentration after 0 days,[11],74%
same,Hb concentration,[12],290 µg/L
same,Recovery ratio with respect to Hb concentration after 0 days,[12],100%
same,Hb concentration,[13],230 µg/L
same,Recovery ratio with respect to Hb concentration after 0 days,[13],79%
same,Hb concentration,[14],204 µg/L
same,Recovery ratio with respect to Hb concentration after 0 days,[14],70%
same,Hb concentration,[15],185 µg/L
same,Recovery ratio with respect to Hb concentration after 0 days,[15],64%
same,Hb concentration,[16],271 µg/L
same,Recovery ratio with respect to Hb concentration after 0 days,[16],100%
same,Hb concentration,[17],186 µg/L
same,Recovery ratio with respect to Hb concentration after 0 days,[17],69%
same,Hb concentration,[18],137 µg/L
same,Recovery ratio with respect to Hb concentration after 0 days,[18],51%
same,Hb concentration,[19],97 µg/L
same,Recovery ratio with respect to Hb concentration after 0 days,[19],36%
same,Hb concentration,[20],271 µg/L
same,Recovery ratio with respect to Hb concentration after 0 days,[20],100%
same,Hb concentration,[21],147 µg/L
same,Recovery ratio with respect to Hb concentration after 0 days,[21],54%
same,Hb concentration,[22],113 µg/L
same,Recovery ratio with respect to Hb concentration after 0 days,[22],42%
same,Hb concentration,[23],91 µg/L
same,Recovery ratio with respect to Hb concentration after 0 days,[23],34%
same,Recovery ratio with respect to Hb concentration after 0 days,"Feces 2, phenylboronic acid 1 mmol/L, 37° C., 0 days",100%
same,Hb concentration,[24],166 µg/L
same,Recovery ratio with respect to Hb concentration after 0 days,[24],58%
same,Hb concentration,[25],136 µg/L
same,Recovery ratio with respect to Hb concentration after 0 days,[25],48%
same,Hb concentration,[26],116 µg/L
same,Recovery ratio with respect to Hb concentration after 0 days,[26],41%
same,Hb concentration,[27],283 µg/L
same,Recovery ratio with respect to Hb concentration after 0 days,[27],100%
same,Hb concentration,[28],249 µg/L
same,Recovery ratio with respect to Hb concentration after 0 days,[28],88%
same,Hb concentration,[29],214 µg/L
same,Recovery ratio with respect to Hb concentration after 0 days,[29],76%
same,Hb concentration,[30],191 µg/L
same,Recovery ratio with respect to Hb concentration after 0 days,[30],67%
same,Hb concentration,[31],283 µg/L
same,Recovery ratio with respect to Hb concentration after 0 days,[31],100%
same,Hb concentration,[32],249 µg/L
same,Recovery ratio with respect to Hb concentration after 0 days,[32],88%
same,Hb concentration,[33],214 µg/L
same,Recovery ratio with respect to Hb concentration after 0 days,[33],76%
same,Hb concentration,[34],191 µg/L
same,Recovery ratio with respect to Hb concentration after 0 days,[34],67%
same,Hb concentration,[35],269 µg/L
same,Recovery ratio with respect to Hb concentration after 0 days,[35],100%
same,Hb concentration,[36],214 µg/L
same,Recovery ratio with respect to Hb concentration after 0 days,[36],80%
same,Recovery ratio with respect to Hb concentration after 0 days,"Feces 2, phenylboronic acid 50 mmol/L, 37° C., 14 days",65%
same,Hb concentration,[37],149 µg/L
same,Recovery ratio with respect to Hb concentration after 0 days,[37],55%
same,Hb concentration,[38],250 µg/L
same,Recovery ratio with respect to Hb concentration after 0 days,[38],100%
same,Hb concentration,[39],139 µg/L
same,Recovery ratio with respect to Hb concentration after 0 days,[39],56%
same,Hb concentration,[40],80 µg/L
same,Recovery ratio with respect to Hb concentration after 0 days,[40],32%
same,Hb concentration,[41],36 µg/L
same,Recovery ratio with respect to Hb concentration after 0 days,[41],14%
same,Hb concentration,"Feces 3, phenylboronic acid 0.5 mmol/L, 37° C., 0 days",283 µg/L
